US20100080855A1, “HEDGEHOG SIGNALING AND CANCER STEM CELLS IN HEMATOPOIETIC CELL MALIGNANCIES” (THE BOARD OF TRUSTEES OF THE LELAND STANFORD JUNIOR …, priority 2008, published 2010)

Tested on: BCR-ABL1 driven leukemia
Conditions: leukemias of mice treated with 25 mg/kg cyclopamine vs vehicle; flow cytometry lin-GFP+ c-Kit+Sca-1+

With `CC1=C2C[C@H]3[C@@H](CC=C4C[C@@H](O)CC[C@@]43C)[C@@H]2CC[C@]12O[C@@H]1C[C@H](C)CN[C@H]1[C@H]2C` [cyclopamine] the “reduction in the CML stem cell population” value was “up to a fourteen-fold reduction”.
